Entries after “also recorded” stand apart in the source; their conditions may differ.
Columns and labels:
Type in all cases: cell-based, human
[1] = tested on: AICS-24 (non-muscle Myosin); assay: Predicted, label free imaging of drug effects (FIG. 10D); settings: AICS-24 cells; predicted label free images
From the text: (§1) FIGS. 10A-10H show the predicted, label free imaging effects of different drugs on different, differentiated, hiPSC cell lines. […] Brefeldin inhibits protein transport from the endoplasmic reticulum to the golgi complex indirectly by preventing association of COP-I coat to the Golgi membrane.

AICS-61 (Histone) = assay: Predicted, label free imaging of drug effects (FIG. 10B, 10G); settings: AICS-61 cells; predicted label free images
From the text: as §1

hiPSC = assay: Effect on microtubules and DNA during mitosis (FIG. 7)
From the text: Microtubules, DNA, and Cell membrane are each labeled.

[2] = tested on: EGFP-tagged cell lines AICS-23, AICS-44, AICS-61, AICS-24 and AICS-16; assay: Drug perturbation signature using label free prediction of DNA (FIG. 11A-11C); settings: population statistics after DNA segmentation of label free prediction
Description: FIG. 11A-11C show the drug perturbation signature using label free prediction, as described herein.
These signatures were distinct from those of other drug perturbations such as BIX, Brefeldin, H89, and Monensin. The identification of these perturbation signatures were performed in the following EGFP-tagged cell lines; AICS-23 (tight junction), AICS-44 (Golgi), AICS-61 (Histone), AICS-24 (non-muscle Myosin) and AICS-16 (beta Actin) without additional introduction of DNA signals.

[3] = tested on: Cell Line ID: AICS-0012 c1.105, Alpha tubulin mEGFP-tagged; assay: Fluorescence imaging of Alpha tubulin mEGFP-tagged hiPSCs (FIG. 9E-9F); settings: 5 μM, 2 hours, vs DMSO control
From the text: (§2) Predicted imaging was also used with H2B (DNA) on Cell Line ID: AICS-0012 c1.105, Alpha tubulin mEGFP-tagged, to confirm the phenotype by two structures from the same cells.

[4] = tested on: hiPSC Cell Line ID: AICS-0061 c1.36 Histone H2B type 1-J mEGFP-tagged; assay: Fluorescence imaging of Histone H2B mEGFP-tagged hiPSCs (FIG. 8E-8F); settings: 5 μM, 2 hours; mEGFP DNA tag; vs DMSO control
From the text: (§3) The fluorescent signal from the hiPSC Cell Line ID: AICS-0061 c1.36 Histone H2B type 1-J mEGFP-tagged (DNA tag) was used to train and validate the label free prediction model.

[5] = tested on: hiPSC Cell Line ID: AICS-0061 c1.36 Histone H2B type 1-J mEGFP-tagged; assay: Label free prediction of condensed DNA from brightfield images (FIG. 8C-8D); settings: 5 μM, 2 hours, vs DMSO control
From the text: as §3
FIGS. 8C and 8D show the predicted images, based on the label free prediction model, obtained by imaging the nucleus of the cells with brightfield microscopy, and predicting the location and amount of condensed DNA, based on the trained model.

[6] = tested on: Cell Line ID: AICS-0012 c1.105, Alpha tubulin mEGFP-tagged; assay: Label free prediction of condensed DNA from brightfield images (FIG. 9C-9D); settings: 5 μM, 2 hours, vs DMSO control
From the text: as §2
FIGS. 9C and 9D show the predicted images, based on the label free prediction model, obtained by imaging the nucleus of the cells with brightfield microscopy, and predicting the location and amount of condensed DNA, based on the trained model.

AICS-16 (beta Actin) = assay: Predicted, label free imaging of drug effects (FIG. 10F, 10H); settings: AICS-16 cells; predicted label free images
From the text: as §1

AICS-44 (Golgi) = assay: Predicted, label free imaging of drug effects (FIG. 10C, 10E); settings: AICS-44 cells; predicted label free images
From the text: as §1

## CC[C@@]1([C@@H]2O[C@@H]([C@H]3O[C@@](O)(CO)[C@H](C)C[C@@H]3C)C[C@@H]2C)CC[C@H]([C@]2(C)CC[C@]3(C[C@H](O)[C@@H](C)[C@@H]([C@@H](C)[C@@H](OC)[C@H](C)C(=O)O)O3)O2)O1 [Monensin]
[1]
  predicted effect on DNA, nuclear size, or microtubule formation: no predicted effect on DNA, nuclear size, or microtubule formation

## O=S(=O)(NCCNC/C=C/c1ccc(Br)cc1)c1cccc2cnccc12 [H89]
AICS-61 (Histone)
  predicted effect on DNA, nuclear size, or microtubule formation: no predicted effect on DNA, nuclear size, or microtubule formation

## CC(=O)O[C@H]1C(=O)[C@@]2(C)[C@H]([C@H](OC(=O)c3ccccc3)[C@]3(O)C[C@H](OC(=O)[C@H](O)[C@@H](NC(=O)c4ccccc4)c4ccccc4)C(C)=C1C3(C)C)[C@]1(OC(C)=O)CO[C@@H]1C[C@@H]2O [Paclitaxel]
hiPSC
  microtubule bundle thickness: increases microtubule bundle thickness
hiPSC; mitosis
  effect on hiPSC division: arrest of cells in metaphase
hiPSC; mitosis, FIG. 7
  microtubule density: increase in microtubule density
[2]
  condensed DNA frequency (perturbation signature in predicted images): increase in frequency of DNA condensation frequency; also recorded: increased condensed DNA Frequency
  nuclear density (perturbation signature in predicted images): higher nuclear density
  nuclear volume (perturbation signature in predicted images): larger nuclear volume
[3]
  microtubule formation, fluorescence image: increase in microtubule formation
AICS-61 (Histone)
  predicted effect on DNA, nuclear size, or microtubule formation: condensed DNA (condensed microtubules)
[4]
  condensed DNA, fluorescence image: increase in condensed DNA
[5]
  amount of condensed DNA in predicted images: higher than the control cells
[6]
  amount of condensed DNA in predicted images: higher than the control cells

## C/C=C(/C)C(=O)O[C@H]1C(C)=C2[C@H]([C@@H]1OC(=O)CCCCCCC)[C@@](C)(OC(C)=O)C[C@H](OC(=O)CCC)[C@@]1(O)[C@H]2OC(=O)[C@@]1(C)O [Thapsigargin]
AICS-16 (beta Actin)
  predicted effect on DNA, nuclear size, or microtubule formation: no predicted effect on DNA, nuclear size, or microtubule formation

## COc1cc2nc(N3CCCN(C)CC3)nc(NC3CCN(Cc4ccccc4)CC3)c2cc1OC [BIX-01294]
AICS-44 (Golgi)
  predicted effect on DNA, nuclear size, or microtubule formation: no predicted effect on DNA, nuclear size, or microtubule formation

## C[C@H]1CCC/C=C/[C@@H]2C[C@H](O)C[C@H]2[C@H](O)/C=C/C(=O)O1 [Brefeldin]
AICS-44 (Golgi)
  predicted effect on DNA, nuclear size, or microtubule formation: no predicted effect on DNA, nuclear size, or microtubule formation

— patent US12510479B2, “Systems, devices, and methods for compound screening using predictive tagging” (ALLEN INSTITUTE, priority 2020, dated 2025)
